Test results reported in patent US20190133128A1, “Fungicidal pyridazinones” (FMC Corporation, priority 2017, published 2019).

Experiments:
Format in all cases: in vivo
Phakopsora pachyrhizi = experiment: Test A: preventive spray on soybean seedlings, Asian soybean rust, visual disease rating; settings: for pest or weed control at 250 ppm: Phakopsora pachyrhizi
Botrytis cinerea = experiment: Test C: preventive spray on tomato seedlings, gray mold, visual disease rating; settings: for pest or weed control at 250 ppm: Botrytis cinerea
Text: (§1) General protocol for preparing test solutions for Tests AG: the test compounds were first dissolved in acetone in an amount equal to 3% of the final volume and then suspended at the desired concentration (in ppm) in acetone and purified water (50/50 mix by volume) containing the surfactant PEG400 (polyhydric alcohol esters). The resulting test suspensions were then used in Tests AG. Compounds were sprayed at a concentration of 250 ppm or other indicated rate to the point of run-off on the test plants. The test solution was sprayed to the point of run-off on tomato seedlings. […] A dash (-) indicates no test results.

Phytophthora infestans = experiment: whole plant or invertebrate; settings: for pest or weed control at 250 ppm: Phytophthora infestans, in Solanum lycopersicum, read-out: Test D disease control rating; for Test D disease control rating: tomato seedlings
Zymoseptoria tritici = experiment: Test E: preventive spray on wheat seedlings, wheat leaf blotch, visual disease rating; settings: for pest or weed control at 250 ppm: Zymoseptoria tritici
Text: as §1, with “wheat” for “tomato”

[1] = test system: Puccinia recondita f. sp. tritici; experiment: Test F: preventive spray on wheat seedlings, wheat leaf rust, visual disease rating; settings: for pest or weed control at 250 ppm: Puccinia recondita
Text: as §1, with “wheat” for “tomato”, “seedlings. The following day the seedlings were inoculated with a spore suspension of Puccinia recondita f. sp. tritici;” for “seedlings.”

[2] = test system: Erysiphe graminis f. sp. tritici; experiment: Test G: preventive spray on wheat seedlings, wheat powdery mildew, visual disease rating; settings: for pest or weed control at 250 ppm: Blumeria graminis, 192 h
Text: as §1, with “wheat” for “tomato”

[3] = 250 ppm, 100 = 100% disease control, 0 = no control

Row | Structure (SMILES) | Test A disease control rating (Phakopsora pachyrhizi; [3]) [%] | Test C disease control rating (Botrytis cinerea; [3]) [%] | Test D disease control rating (Phytophthora infestans; [3]) [%] | Test E disease control rating (Zymoseptoria tritici; [3]) [%] | Test F disease control rating [1, 3] [%] | Test G disease control rating [2, 3] [%] | further results
1 | Cn1ncc(OS(C)(=O)=O)c(C(=O)Nc2ccc(OC(F)F)cc2)c1=O [Compound 97, N-[4-(Difluoromethoxy)phenyl]-2,3-dihydro-2-methyl-5-[(methylsulfonyl)oxy]-3-oxo-4-pyridazinecarboxamide] | – | – | – | – | – | – | pest or weed control at 250 ppm (Phakopsora pachyrhizi; [3]): 95%; pest or weed control at 250 ppm (Botrytis cinerea; [3]): 40%; pest or weed control at 250 ppm (Phytophthora infestans): 95%; pest or weed control at 250 ppm (Zymoseptoria tritici; [3]): 100%; pest or weed control at 250 ppm [1, 3]: 99%; pest or weed control at 250 ppm [2, 3]: 91%
2 | Cn1ncc(O)c(C(=O)Nc2cccc(C(F)(F)F)c2)c1=O [Compound 56] | 0 | 0 | 61 | 0 | 92 | 35 | –
3 | Cn1ncc(OS(C)(=O)=O)c(C(=O)Nc2ccccc2F)c1=O [Compound 104] | 87 | 0 | 0 | 94 | 89 | 65 | –
4 | Cn1ncc(O)c(C(=O)Nc2ccc(S(C)(=O)=O)cc2)c1=O [Compound 49] | 0 | 0 | 0 | 0 | 68 | 0 | –
5 | Cc1ccc(NC(=O)c2c(Cl)cnn(C)c2=O)cc1 [Compound 31] | 65 | 92 | 0 | 0 | 95 | 0 | –
6 | Cn1ncc(Cl)c(C(=O)Nc2ccc(C(F)(F)F)cc2F)c1=O [Compound 52] | – | – | – | – | – | – | Test A disease control rating (Phakopsora pachyrhizi; 160 ppm): 97%; Test C disease control rating (Botrytis cinerea; 160 ppm): 59%; Test D disease control rating (Phytophthora infestans; 160 ppm): 90%; Test E disease control rating (Zymoseptoria tritici; 160 ppm): 99%; Test F disease control rating ([1]; 160 ppm): 99%; Test G disease control rating ([2]; 160 ppm): 39%
7 | Cn1ncc(OS(C)(=O)=O)c(C(=O)Nc2ccc(C(F)(F)F)cc2)c1=O [Compound 96, 2,3-Dihydro-2-methyl-5-[(methylsulfonyl)oxy]-3-oxo-N-[4-(trifluoromethyl)phenyl]-4-pyridazinecarboxamide] | – | – | – | – | – | – | pest or weed control at 250 ppm (Phakopsora pachyrhizi; [3]): 98%; pest or weed control at 250 ppm (Botrytis cinerea; [3]): 30%; pest or weed control at 250 ppm (Phytophthora infestans): 0%; pest or weed control at 250 ppm (Zymoseptoria tritici; [3]): 97%; pest or weed control at 250 ppm [1, 3]: 99%; pest or weed control at 250 ppm [2, 3]: 84%
8 | Cc1ccc(S(=O)(=O)Oc2cnn(C)c(=O)c2C(=O)Nc2ccc(OC(F)(F)F)cc2)cc1 [Compound 112] | 25 | 0 | 46 | 43 | 95 | 0 | –
9 | Cn1ncc(Cl)c(C(=O)Nc2cccc(C(F)(F)F)c2)c1=O [Compound 64] | – | – | – | – | – | – | Test A disease control rating (Phakopsora pachyrhizi; 265 ppm): 92%; Test C disease control rating (Botrytis cinerea; 265 ppm): 76%; Test D disease control rating (Phytophthora infestans; 265 ppm): 53%; Test E disease control rating (Zymoseptoria tritici; 265 ppm): 94%; Test F disease control rating ([1]; 265 ppm): 91%; Test G disease control rating ([2]; 265 ppm): 0%
10 | Cn1ncc(O)c(C(=O)Nc2ccccc2F)c1=O [Compound 36] | 31 | 0 | 94 | 0 | 98 | 78 | –
11 | Cn1ncc(Cl)c(C(=O)Nc2ccccc2-c2ccc(Cl)cc2)c1=O [Compound 33] | 48 | 0 | 0 | 0 | 97 | 0 | –
12 | Cn1ncc(OS(C)(=O)=O)c(C(=O)Nc2ccc(OC(F)(F)F)cc2F)c1=O [Compound 100] | 94 | 98 | 0 | 92 | 95 | 0 | –
13 | Cn1ncc(O)c(C(=O)Nc2ccccc2-c2ccc(Cl)cc2)c1=O [Compound 28] | 0 | 0 | 0 | 0 | 97 | 27 | –
14 | O=C(Nc1ccc(OC(F)(F)F)cc1)c1c(O)cnn(-c2ccccc2)c1=O [Compound 60] | 0 | 0 | 88 | 92 | 88 | 57 | –
15 | Cc1cccc(NC(=O)c2c(O)cnn(C)c2=O)c1 [Compound 54] | 0 | 0 | 0 | 0 | 95 | 0 | –
16 | Cn1ncc(Br)c(C(=O)Nc2ccc(OC(F)(F)F)cc2)c1=O [Compound 42, 5-Bromo-2,3-dihydro-2-methyl-3-oxo-N-[4-(trifluoromethoxy)phenyl]-4-pyridazinecarboxamide] | – | – | – | – | – | – | pest or weed control at 250 ppm (Phakopsora pachyrhizi; [3]): 79%; pest or weed control at 250 ppm (Botrytis cinerea; [3]): 0%; pest or weed control at 250 ppm (Phytophthora infestans): 0%; pest or weed control at 250 ppm (Zymoseptoria tritici; [3]): 99%; pest or weed control at 250 ppm [1, 3]: 86%; pest or weed control at 250 ppm [2, 3]: 0%
17 | O=C(Nc1ccc(OC(F)(F)F)cc1)c1c(O)cnn(-c2cccc(C(F)(F)F)c2)c1=O [Compound 71] | 12 | 0 | 0 | 0 | 0 | 0 | –
18 | Cc1cccc(NC(=O)c2c(OS(C)(=O)=O)cnn(C)c2=O)c1 [Compound 105] | 86 | 0 | 33 | 86 | 86 | 0 | –
19 | Cn1ncc(OC(=O)c2ccccc2)c(C(=O)N(C(=O)c2ccccc2)c2ccc(OC(F)(F)F)cc2)c1=O [Compound 81] | 0 | 0 | 0 | 67 | 98 | 0 | –
